The test concerns the target T1, PI3KC2g(h) (Homo sapiens, UniProt O75747).
T1 construct: gene PIK3C2G
T1 sequence (O75747 1-1486): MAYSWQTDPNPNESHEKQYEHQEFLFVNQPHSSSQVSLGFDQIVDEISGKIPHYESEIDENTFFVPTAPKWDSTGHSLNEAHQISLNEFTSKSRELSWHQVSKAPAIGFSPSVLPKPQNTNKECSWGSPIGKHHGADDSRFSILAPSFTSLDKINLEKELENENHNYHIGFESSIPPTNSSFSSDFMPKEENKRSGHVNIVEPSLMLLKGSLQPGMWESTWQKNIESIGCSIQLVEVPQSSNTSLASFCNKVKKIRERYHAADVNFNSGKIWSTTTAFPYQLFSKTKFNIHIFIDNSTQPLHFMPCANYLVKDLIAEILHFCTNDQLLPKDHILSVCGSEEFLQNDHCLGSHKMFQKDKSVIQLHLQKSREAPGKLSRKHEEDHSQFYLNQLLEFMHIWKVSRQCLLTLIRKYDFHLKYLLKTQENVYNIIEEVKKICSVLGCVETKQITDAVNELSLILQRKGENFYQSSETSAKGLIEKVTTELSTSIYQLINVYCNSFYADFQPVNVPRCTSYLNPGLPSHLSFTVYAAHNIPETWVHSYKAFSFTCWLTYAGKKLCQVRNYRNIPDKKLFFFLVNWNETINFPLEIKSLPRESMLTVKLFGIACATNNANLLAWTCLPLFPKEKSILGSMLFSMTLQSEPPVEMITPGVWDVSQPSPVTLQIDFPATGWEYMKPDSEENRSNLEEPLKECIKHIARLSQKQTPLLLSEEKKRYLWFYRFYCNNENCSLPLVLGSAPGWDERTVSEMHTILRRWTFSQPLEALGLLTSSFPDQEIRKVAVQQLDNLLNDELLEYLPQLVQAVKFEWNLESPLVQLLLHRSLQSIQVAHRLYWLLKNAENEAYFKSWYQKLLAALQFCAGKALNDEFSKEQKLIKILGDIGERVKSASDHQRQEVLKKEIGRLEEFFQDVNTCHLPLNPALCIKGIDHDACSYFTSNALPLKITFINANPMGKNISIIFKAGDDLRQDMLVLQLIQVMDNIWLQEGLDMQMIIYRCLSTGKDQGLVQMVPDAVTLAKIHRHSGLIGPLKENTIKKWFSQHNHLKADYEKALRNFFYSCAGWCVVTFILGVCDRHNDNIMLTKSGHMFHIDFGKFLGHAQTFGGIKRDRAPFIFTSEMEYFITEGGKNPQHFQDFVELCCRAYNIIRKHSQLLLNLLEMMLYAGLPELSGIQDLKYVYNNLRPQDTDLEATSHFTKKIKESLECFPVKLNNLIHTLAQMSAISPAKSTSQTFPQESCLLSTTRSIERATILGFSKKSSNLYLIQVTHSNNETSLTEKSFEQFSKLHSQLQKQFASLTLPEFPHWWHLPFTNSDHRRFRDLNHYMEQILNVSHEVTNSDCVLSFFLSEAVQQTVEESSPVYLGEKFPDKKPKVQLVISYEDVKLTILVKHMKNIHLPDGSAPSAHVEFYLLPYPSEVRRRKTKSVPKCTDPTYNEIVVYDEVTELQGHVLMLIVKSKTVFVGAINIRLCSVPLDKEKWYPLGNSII
Kind of test: biochemical. Set-up: Eurofins KinaseProfiler full panel at Km ATP, residual kinase activity (%) relative to DMSO. In a few lines:
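Two 10 µM single-concentration screens were run: a competition-binding screen, in which DNA-tagged kinase bound to immobilized ligands was quantified by qPCR, and a radiometric activity panel at Km ATP. Each is expressed as residual kinase activity (%).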

Where two headings read alike, the source gives them in different places.

Turning to `Fc1ccc2ncnc(NCCc3ccc(Cl)cc3)c2c1` [5at, N-[2-(4-Chlorophenyl)Ethyl]-6-Fluoro-4-Quinazolinamine], the remaining activity at 10 µM (read-out: Residual activity (%) 5at) was determined as 34%.
As for `COc1ccc2ncnc(Nc3cccc(F)c3)c2c1` [5ay, N-(3-Fluorophenyl)-6-Methoxy-4-Quinazolinamine], where the note is “read-out: Residual activity (%) 5ay”, the remaining activity at 10 µM is 40%.
With `Fc1ccc(CCNc2ncnc3ccc(F)cc23)cc1` [5as, 6-Fluoro-N-[2-(4-Fluorophenyl)Ethyl]-4-Quinazolinamine], where the note is “read-out: Residual activity (%) 5as”, the remaining activity at 10 µM was 57%.
Take `Fc1ccc(CNc2ncnc3ccc(F)cc23)cc1` [5aa, 6-Fluoro-N-(4-fluorobenzyl)-4-Quinazolinamine]: the remaining activity at 10 µM (read-out: Residual activity (%) Spautin-1 5aa) turned out to be 70%.

The record behind these values is publication PMC7827406, “Structure–Activity Relationship (SAR) Study of Spautin-1 to Entail the Discovery of Novel NEK4 Inhibitors” (International Journal of Molecular Sciences, 2021).
